In the CheMixHub viscosity set:
± gives the uncertainty stated by the source.

Assay: xn = mol fraction of the nth substance listed

CCCCNCCCC + CC(C)(C)O
viscosity [mPa·s]
Details	298.15 K	303.15 K	308.15 K	313.15 K	318.15 K	323.15 K
101 kPa, x2 = 0.1	–	0.8289 ± 0.01	0.7649 ± 0.0097	0.7079 ± 0.009	0.658 ± 0.0083	0.6131 ± 0.0078
101 kPa, x2 = 0.2	–	0.8953 ± 0.011	0.8203 ± 0.01	0.7551 ± 0.0095	0.6972 ± 0.0088	0.6454 ± 0.0081
101 kPa, x2 = 0.3	–	0.976 ± 0.012	0.8884 ± 0.011	0.8111 ± 0.01	0.7456 ± 0.0093	0.6862 ± 0.0086
101 kPa, x2 = 0.4	–	1.082 ± 0.013	0.9747 ± 0.012	0.8862 ± 0.011	0.8031 ± 0.0099	0.7331 ± 0.0091
101 kPa, x2 = 0.4999	–	1.217 ± 0.015	1.085 ± 0.013	0.9769 ± 0.012	0.8802 ± 0.011	0.7968 ± 0.0098
101 kPa, x2 = 0.55	–	1.302 ± 0.016	1.153 ± 0.014	1.027 ± 0.013	0.92 ± 0.011	0.829 ± 0.01
101 kPa, x2 = 0.6001	–	1.391 ± 0.017	1.228 ± 0.015	1.087 ± 0.013	0.9714 ± 0.012	0.8676 ± 0.011
101 kPa, x2 = 0.65	–	1.513 ± 0.018	1.32 ± 0.016	1.16 ± 0.014	1.027 ± 0.013	0.9126 ± 0.011
101 kPa, x2 = 0.7	–	1.647 ± 0.02	1.423 ± 0.017	1.24 ± 0.015	1.089 ± 0.013	0.9614 ± 0.012
101 kPa, x2 = 0.8001	–	2.011 ± 0.025	1.696 ± 0.021	1.441 ± 0.018	1.245 ± 0.015	1.08 ± 0.013
101 kPa, x2 = 0.9	–	2.559 ± 0.031	2.087 ± 0.026	1.71 ± 0.021	1.45 ± 0.018	1.232 ± 0.015
101 kPa, x2 = 0.95	–	2.937 ± 0.036	2.352 ± 0.029	1.91 ± 0.023	1.583 ± 0.019	1.333 ± 0.016
101.33 kPa, x1 = 0.0672	3.548	–	2.271	–	1.565	–
101.33 kPa, x1 = 0.0989	3.272	–	2.133	–	1.497	–
101.33 kPa, x1 = 0.1393	2.953	–	1.97	–	1.409	–
101.33 kPa, x1 = 0.1939	2.586	–	1.782	–	1.303	–
101.33 kPa, x1 = 0.2674	2.165	–	1.559	–	1.172	–
101.33 kPa, x1 = 0.3319	1.893	–	1.402	–	1.077	–
101.33 kPa, x1 = 0.405	1.643	–	1.25	–	0.984	–
101.33 kPa, x1 = 0.4915	1.419	–	1.109	–	0.895	–
101.33 kPa, x1 = 0.5791	1.248	–	0.999	–	0.816	–
101.33 kPa, x1 = 0.6466	1.143	–	0.93	–	0.769	–
101.33 kPa, x1 = 0.6907	1.086	–	0.89	–	0.745	–
101.33 kPa, x1 = 0.776	0.994	–	0.825	–	0.7	–
101.33 kPa, x1 = 0.8387	0.932	–	0.783	–	0.671	–
101.33 kPa, x1 = 0.8867	0.889	–	0.752	–	0.654	–
101.33 kPa, x1 = 0.9129	0.872	–	0.742	–	0.642	–
101.33 kPa, x1 = 0.9471	0.845	–	0.724	–	0.629	–

COCCO + CCCO
Details	viscosity [mPa·s]
298.15 K, 100 kPa, x1 = 0.1005	1.79 ± 0.04
298.15 K, 100 kPa, x1 = 0.2016	1.68 ± 0.04
298.15 K, 100 kPa, x1 = 0.3013	1.61 ± 0.03
298.15 K, 100 kPa, x1 = 0.4012	1.56 ± 0.03
298.15 K, 100 kPa, x1 = 0.5013	1.53 ± 0.03
298.15 K, 100 kPa, x1 = 0.6005	1.52 ± 0.03
298.15 K, 100 kPa, x1 = 0.7008	1.52 ± 0.03
298.15 K, 100 kPa, x1 = 0.8003	1.52 ± 0.03
298.15 K, 100 kPa, x1 = 0.9001	1.54 ± 0.03
298.15 K, 101 kPa, x1 = 0.08067	1.901 ± 0.19
298.15 K, 101 kPa, x1 = 0.1649	1.776 ± 0.18
298.15 K, 101 kPa, x1 = 0.2529	1.692 ± 0.17
298.15 K, 101 kPa, x1 = 0.3449	1.65 ± 0.17
298.15 K, 101 kPa, x1 = 0.4413	1.624 ± 0.16
298.15 K, 101 kPa, x1 = 0.5423	1.601 ± 0.16
298.15 K, 101 kPa, x1 = 0.6482	1.59 ± 0.16
298.15 K, 101 kPa, x1 = 0.7596	1.58 ± 0.16
298.15 K, 101 kPa, x1 = 0.8767	1.571 ± 0.16
298.15 K, 101.33 kPa, x1 = 0.0072	1.938 ± 0.015
298.15 K, 101.33 kPa, x1 = 0.0141	1.926 ± 0.015
298.15 K, 101.33 kPa, x1 = 0.0297	1.898 ± 0.015
298.15 K, 101.33 kPa, x1 = 0.0471	1.867 ± 0.015
298.15 K, 101.33 kPa, x1 = 0.062	1.844 ± 0.015
308.15 K, 101 kPa, x1 = 0.08067	1.34 ± 0.13
308.15 K, 101 kPa, x1 = 0.1014	1.435 ± 0.023
308.15 K, 101 kPa, x1 = 0.1502	1.402 ± 0.022
308.15 K, 101 kPa, x1 = 0.1649	1.264 ± 0.13
308.15 K, 101 kPa, x1 = 0.2508	1.351 ± 0.022
308.15 K, 101 kPa, x1 = 0.2529	1.249 ± 0.13
308.15 K, 101 kPa, x1 = 0.3049	1.331 ± 0.021
308.15 K, 101 kPa, x1 = 0.3449	1.227 ± 0.12
308.15 K, 101 kPa, x1 = 0.3667	1.301 ± 0.021
308.15 K, 101 kPa, x1 = 0.4257	1.303 ± 0.021
308.15 K, 101 kPa, x1 = 0.4413	1.206 ± 0.12
308.15 K, 101 kPa, x1 = 0.4838	1.28 ± 0.021
308.15 K, 101 kPa, x1 = 0.5161	1.278 ± 0.021
308.15 K, 101 kPa, x1 = 0.5378	1.276 ± 0.021
308.15 K, 101 kPa, x1 = 0.5423	1.179 ± 0.12
308.15 K, 101 kPa, x1 = 0.5647	1.279 ± 0.021
308.15 K, 101 kPa, x1 = 0.6129	1.27 ± 0.021
308.15 K, 101 kPa, x1 = 0.6482	1.154 ± 0.12
308.15 K, 101 kPa, x1 = 0.67	1.252 ± 0.02
308.15 K, 101 kPa, x1 = 0.7387	1.25 ± 0.02
308.15 K, 101 kPa, x1 = 0.7596	1.131 ± 0.11
308.15 K, 101 kPa, x1 = 0.7685	1.251 ± 0.02
308.15 K, 101 kPa, x1 = 0.8213	1.251 ± 0.02
308.15 K, 101 kPa, x1 = 0.8767	1.125 ± 0.11
308.15 K, 101 kPa, x1 = 0.8898	1.253 ± 0.02
308.15 K, 101 kPa, x1 = 0.9239	1.253 ± 0.02
308.15 K, 101 kPa, x1 = 0.9491	1.26 ± 0.02
308.15 K, 101 kPa, x1 = 0.9574	1.264 ± 0.02
308.15 K, 101 kPa, x1 = 0.9686	1.277 ± 0.021
308.15 K, 101 kPa, x2 = 0.0129	1.288 ± 0.021
308.15 K, 101.33 kPa, x1 = 0.117	1.362 ± 0.011
308.15 K, 101.33 kPa, x1 = 0.1795	1.319 ± 0.011
308.15 K, 101.33 kPa, x1 = 0.3024	1.26 ± 0.011
308.15 K, 101.33 kPa, x1 = 0.4526	1.207 ± 0.01
308.15 K, 101.33 kPa, x1 = 0.5265	1.192 ± 0.01
308.15 K, 101.33 kPa, x1 = 0.6439	1.185 ± 0.01
308.15 K, 101.33 kPa, x1 = 0.7915	1.182 ± 0.01
308.15 K, 101.33 kPa, x1 = 0.8693	1.174 ± 0.01
313.15 K, 100 kPa, x1 = 0.1005	1.3 ± 0.03
313.15 K, 100 kPa, x1 = 0.2016	1.23 ± 0.03
313.15 K, 100 kPa, x1 = 0.3013	1.19 ± 0.03
313.15 K, 100 kPa, x1 = 0.4012	1.16 ± 0.02
313.15 K, 100 kPa, x1 = 0.5013	1.15 ± 0.02
313.15 K, 100 kPa, x1 = 0.6005	1.14 ± 0.02
313.15 K, 100 kPa, x1 = 0.7008	1.14 ± 0.02
313.15 K, 100 kPa, x1 = 0.8003	1.15 ± 0.02
313.15 K, 100 kPa, x1 = 0.9001	1.16 ± 0.02
318.15 K, 101 kPa, x1 = 0.08067	1.099 ± 0.11
318.15 K, 101 kPa, x1 = 0.1014	1.168 ± 0.019
318.15 K, 101 kPa, x1 = 0.1502	1.142 ± 0.019
318.15 K, 101 kPa, x1 = 0.1649	1.058 ± 0.11
318.15 K, 101 kPa, x1 = 0.2508	1.089 ± 0.018
318.15 K, 101 kPa, x1 = 0.2529	1.003 ± 0.1
318.15 K, 101 kPa, x1 = 0.3049	1.079 ± 0.018
318.15 K, 101 kPa, x1 = 0.3449	0.9764 ± 0.098
318.15 K, 101 kPa, x1 = 0.3667	1.062 ± 0.018
318.15 K, 101 kPa, x1 = 0.4257	1.052 ± 0.018
318.15 K, 101 kPa, x1 = 0.4413	0.9794 ± 0.098
318.15 K, 101 kPa, x1 = 0.4838	1.036 ± 0.017
318.15 K, 101 kPa, x1 = 0.5161	1.029 ± 0.017
318.15 K, 101 kPa, x1 = 0.5378	1.032 ± 0.017
318.15 K, 101 kPa, x1 = 0.5423	0.9701 ± 0.097
318.15 K, 101 kPa, x1 = 0.5647	1.028 ± 0.017
318.15 K, 101 kPa, x1 = 0.6129	1.021 ± 0.017
318.15 K, 101 kPa, x1 = 0.6482	0.9645 ± 0.097
318.15 K, 101 kPa, x1 = 0.67	1.017 ± 0.017
318.15 K, 101 kPa, x1 = 0.7387	1.018 ± 0.017
318.15 K, 101 kPa, x1 = 0.7596	0.9589 ± 0.096
318.15 K, 101 kPa, x1 = 0.7685	1.018 ± 0.017
318.15 K, 101 kPa, x1 = 0.8213	1.016 ± 0.017
318.15 K, 101 kPa, x1 = 0.8767	0.9552 ± 0.096
318.15 K, 101 kPa, x1 = 0.8898	1.022 ± 0.017
318.15 K, 101 kPa, x1 = 0.9239	1.025 ± 0.017
318.15 K, 101 kPa, x1 = 0.9491	1.029 ± 0.017
318.15 K, 101 kPa, x1 = 0.9574	1.028 ± 0.017
318.15 K, 101 kPa, x1 = 0.9686	1.027 ± 0.017
318.15 K, 101 kPa, x2 = 0.0129	1.029 ± 0.017
